Test results taken from patent US20220284983A1, “METHODS OF IDENTIFYING CIS-REGULATORY ELEMENTS AND USES THEREOF” (UNIVERSITY HEALTH NETWORK, priority 2019, published 2022).

Tested on: 16 breast cancer cell lines
Test: Drug response of 16 breast cancer cell lines (GRAY dataset, PharmacoGx) compared by presence or absence of CREAM-identified COREs
Type: cell-based
Conditions: >1 = higher sensitivity when CORE present
Excerpt: For example, in methods involving assessing drug sensitivity, for each CORE, average drug sensitivity of the samples with that CORE can be divided to the average drug sensitivity of the samples without that CORE. Then the COREs can be sorted based on the obtained fold changes and COREs with top fold changes can be selected.
Therefore, in some embodiments, the top COREs can be determined as being the COREs with a minimum FDR (False Discovery Rate) after significance after multiple hypothesis correction with dindex>1 (where dindex is a measure of hazard). The FDR indicates the significance or effect of association between existence (in the case of binary features using COREs) or values of that feature and the output value (like drug sensitivity in case of biomarker discovery). The FDR is a corrected p-value for multiple hypothesis. Then the COREs that exist in less than N samples may be further filtered. The value of N may be 2 or more and depends on the particular COREs and the prognosis being predicted. For some studies described herein N was chosen to be 5. As an optional step, the remaining COREs may be combined to result in the CORE signatures that may be used for a multivariate model. In some embodiments, Fold Change may be used instead of FDR in which case for each CORE, the average drug sensitivity of the samples with that CORE can be divided by the average drug sensitivity of the samples without that CORE. Then the COREs can be sorted based on the obtained fold changes and the COREs with the top fold changes can be selected.
CREAM was tested for biomarker discovery, for drug response, using 16 breast cancer cell lines (AU565, BT549, HCC1143, HCC1395, HCC1419, HCC1806, HCC1937, HCC3153, HCC38, HCC70, MDAMB157, MDAMB361, MDAMB453, MX1, T47D, ZR751) with available ATAC-seq profiles and response to PD98059 (a non-ATP competitive MEK inhibitor), and Floxuridine (an antimetabolite agent), as part of the data available in PharmacoGx R package (version 2.0.5) developed by Haibe-Kains laboratory. There are currently no known biomarker for response to PD98059 and Floxuridine.
The columns in each Table are: 1) chromosome regions of the COREs; 2) pvalue; 3) Fold change.
Fold change tells you if presence of a CORE results in higher or lower sensitivity. If Fold Change is great than 1, it means that presence of a CORE results in higher sensitivity and Fold Change is less than 1, it means that presence of a CORE results in lower sensitivity.

`O=c1[nH]c(=O)n([C@H]2C[C@H](O)[C@@H](CO)O2)cc1F` [Floxuridine] gave a Fold change (Floxuridine sensitivity with vs without CORE chr2-36473442-37039510) of 0.6674, a Fold change (Floxuridine sensitivity with vs without CORE chr3-69004922-69292456) of 0.6617 and a Fold change (Floxuridine sensitivity with vs without CORE chr4-99547495-99584170) of 0.5406. It also gave a Fold change (Floxuridine sensitivity with vs without CORE chr5-167696005-167914094) of 0.629, a Fold change (Floxuridine sensitivity with vs without CORE chr6-16577121-16782003) of 0.5777 and a Fold change (Floxuridine sensitivity with vs without CORE chr15-60619092-60725509) of 0.7009. For the same molecule, the Fold change (Floxuridine sensitivity with vs without CORE chr16-29801700-30154789) was 1.653, the Fold change (Floxuridine sensitivity with vs without CORE chr16-67184267-67407032) was 2.017 and the Fold change (Floxuridine sensitivity with vs without CORE chr17-21102597-21252333) was 0.699.
`COc1cccc(-c2cc(=O)c3ccccc3o2)c1N` [PD98059] showed a Fold change (PD98059 sensitivity with vs without CORE chr2-75602732-75966190) of 0.5231, a Fold change (PD98059 sensitivity with vs without CORE chr6-126063660-126362254) of 0.4327 and a Fold change (PD98059 sensitivity with vs without CORE chr7-54328557-56189467) of 0.5362. It also gave a Fold change (PD98059 sensitivity with vs without CORE chr9-75681937-75835570) of 0.538, a Fold change (PD98059 sensitivity with vs without CORE chr9-103348375-103365047) of 0.4902 and a Fold change (PD98059 sensitivity with vs without CORE chr9-130150616-131799038) of 1.906. The Fold change (PD98059 sensitivity with vs without CORE chr9-139257512-140211180) was 1.864, the Fold change (PD98059 sensitivity with vs without CORE chr11-694436-876984) was 2.17 and the Fold change (PD98059 sensitivity with vs without CORE chr11-34183346-34607941) was 1.859. For the same molecule, the Fold change (PD98059 sensitivity with vs without CORE chr15-40330702-40453457) was 2.206, the Fold change (PD98059 sensitivity with vs without CORE chr16-4965308-5008584) was 1.983 and the Fold change (PD98059 sensitivity with vs without CORE chr16-53766187-53861966) was 0.4902. It also gave a Fold change (PD98059 sensitivity with vs without CORE chr17-21102597-21252333) of 0.5247, a Fold change (PD98059 sensitivity with vs without CORE chr19-45765981-46636866) of 1.904 and a Fold change (PD98059 sensitivity with vs without CORE chr20-9819285-10752699) of 0.5253.
